In US20250163043A1 (TRANSTHERA SCIENCES (NANJING), INC., priority 2021, published 2025):

Experiments:
CDK3/CycE1 = CDK3/CycE1 (Homo sapiens, UniProt Q00526); experiment: ADP-Glo kinase assay on CDK enzymatic activity, CDK3/CycE1; type: biochemical; details: 10 concentrations from 10 μM, 4-fold, 60 min room temperature
Procedure, shortened: (§1)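 Enzyme activity was measured by ADP-Glo luminescence following 60 min turnover of CDK tide peptide at room temperature. Compounds spanned ten 4-fold dilutions from 10 μM final, with 0.5% DMSO.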

CDK1/CycE1 = CDK1/CycE1 (Homo sapiens, UniProt P06493); experiment: ADP-Glo kinase assay on CDK enzymatic activity, CDK1/CycE1; type: biochemical; details: ADP-Glo; 10 concentrations from 10 μM, 4-fold; 60 min room temperature; read-out: CDK1/CycE1/nM (IC50)
Procedure, shortened: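 Compounds in 10-point 4-fold dilutions from 10 μM final, preincubated 10 min with kinase, then substrate/ATP added; 60 min reaction at room temperature. ADP-Glo luminescence read.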

CDK5/p25NCK = CDK5/p25NCK (Homo sapiens, UniProt Q00535); experiment: ADP-Glo kinase assay on CDK enzymatic activity, CDK5/p25NCK; type: biochemical; details: 10 concentrations from 10 μM, 4-fold, 60 min room temperature
Procedure, shortened: as §1

CDK9/CycT1 [1] = molecular target: T1, CDK9/CycT1 (Homo sapiens, UniProt P50750); experiment: ADP-Glo kinase assay on CDK enzymatic activity, CDK9/CycT1; type: biochemical; details: 10 concentrations from 10 μM, 4-fold, 60 min room temperature
Procedure, shortened: as §1

CDK2/CycA2 = CDK2/CycA2 (Homo sapiens, UniProt P24941); experiment: ADP-Glo kinase assay on CDK enzymatic activity, CDK2/CycA2; type: biochemical; details: 10 concentrations from 10 μM, 4-fold, 60 min room temperature
Procedure, shortened: as §1

[2] = test system: NCI-H929 (human myeloma cells); experiment: CCK-8 cell proliferation assay, NCI-H929; type: cell-based; details: 72 h incubation, 11 concentrations from 5000 nM, 3-fold
Experimental: Test samples: the compounds of the present invention, having structures shown above.
RMPI 1640, Fetal Bovine Serum (FBS), a CCK-8 method cell proliferation assay kit, DMSO (dimethyl sulfoxide), a 96-well cell culture plate, an Iscov'Modified Dulbecco's culture medium (IMDM), a multifunctional microplate reader,
MV-4-11 (human myelomonocytic leukemia cells) and NCI-H929 (human myeloma cells).
The compounds were dissolved in DMSO and diluted 3-fold in the 96-well plate to obtain stock solutions with 11 concentration gradients. Each cell was inoculated into a 96-well plate, and the diluted compound stock solution was added to the 96-well plate to obtain a series of 11 concentration gradients of compound solutions with final concentrations of 5000 nM starting and 3-fold gradient decreasing, wherein the final DMSO content was […]. There was a medium containing 1‰ DMSO in the negative control well. The treated cells were incubated at 37° C. with 5% CO2 and 95% humidity, wherein MV-4-11 were incubated for 24 h and NCI-H929 for 72 h. After incubation was completed, each well was added with 10 μL of CCK-8 reagent, incubated for 1-3 h at room temperature and placed in the microplate reader, and the absorbance was read at 450 nm.
The inhibition rate was calculated according to the following formula: […]
ODcmpd: compound absorbance; ODpositive: average value of the absorbance of positive control without compound; ODvehicle: average value of the absorbance of solvent vehicle control.
IC50 values were fitted using GraphPad 7.0 based on inhibition rates of compounds at different concentrations.

CDK9/CycT1 [3] = molecular target: T1, CDK9/CycT1; experiment: Off-chip mobility shift assay (MSA) on CDK9/CycT1; type: biochemical; design: Full-length human CDK9 [1-372(end) amino acids of; host or cells: baculovirus expression system; details: 4-point concentration (0.0016, 0.008, 0.04, 0.2 uM), ATP 10 μM, reaction time 5 hours, read-out: CDK9/CycT1/nM (inhibitory activity)
Experimental: Prepare 100× concentrated Test compound stock solutions with DMSO. Then, Dilute the solution 25 times with Assay Buffer (20 mM HEPES, 0.01% Triton X-100, 2 mM DTT, pH7.5) to prepare 4× test compound solutions.
Test compounds were evaluated at 4-point concentration (0.0016, 0.008, 0.04, 0.2 uM). • 1) Mix 5 μL of 4× test compound solution with 5 μL of 4× substrate/ATP/Metal solution and 10 μL of 2× kinase solution in 384-well polypropylene plate. Incubate for 5 hours at room temperature. • 2) Add 70 μL of Termination Buffer (QuickScout Screening Assist MSA; Carna Biosciences) to stop the reaction. • 3) Separate and detect unphosphorylated/phosphorylated substrate peptides in the reactant using LabChip system (Perkin Elmer). • 4) Evaluate kinase reaction from product ratio (P/(P+S)) calculated by peak height of unphosphorylated substrate(S) and peak height of phosphorylated substrate (P).

Chain of CDK1/CycE1 (P06493 whole entry, species assumed): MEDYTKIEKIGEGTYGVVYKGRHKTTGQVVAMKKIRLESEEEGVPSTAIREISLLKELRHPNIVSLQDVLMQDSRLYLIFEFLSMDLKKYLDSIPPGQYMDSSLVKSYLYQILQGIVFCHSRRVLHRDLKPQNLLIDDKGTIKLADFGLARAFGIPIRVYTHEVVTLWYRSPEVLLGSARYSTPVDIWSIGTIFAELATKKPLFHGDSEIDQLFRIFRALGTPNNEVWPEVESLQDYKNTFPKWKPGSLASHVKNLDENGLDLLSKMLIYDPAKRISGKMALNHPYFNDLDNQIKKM
Chain of CDK1/CycE1 (P24864 whole entry partner, species assumed): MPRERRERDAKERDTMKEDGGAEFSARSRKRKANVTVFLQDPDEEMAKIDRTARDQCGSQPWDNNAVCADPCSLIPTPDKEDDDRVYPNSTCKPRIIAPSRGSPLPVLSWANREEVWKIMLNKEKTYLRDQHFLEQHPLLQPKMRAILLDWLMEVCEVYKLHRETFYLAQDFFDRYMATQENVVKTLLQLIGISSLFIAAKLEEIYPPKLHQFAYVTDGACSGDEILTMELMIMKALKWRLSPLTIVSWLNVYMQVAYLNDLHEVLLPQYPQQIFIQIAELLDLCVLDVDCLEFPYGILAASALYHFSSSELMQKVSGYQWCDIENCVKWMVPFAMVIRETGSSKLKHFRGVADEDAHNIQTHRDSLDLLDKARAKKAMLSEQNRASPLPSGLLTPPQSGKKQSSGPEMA
Chain of CDK3/CycE1 (Q00526 whole entry, species assumed): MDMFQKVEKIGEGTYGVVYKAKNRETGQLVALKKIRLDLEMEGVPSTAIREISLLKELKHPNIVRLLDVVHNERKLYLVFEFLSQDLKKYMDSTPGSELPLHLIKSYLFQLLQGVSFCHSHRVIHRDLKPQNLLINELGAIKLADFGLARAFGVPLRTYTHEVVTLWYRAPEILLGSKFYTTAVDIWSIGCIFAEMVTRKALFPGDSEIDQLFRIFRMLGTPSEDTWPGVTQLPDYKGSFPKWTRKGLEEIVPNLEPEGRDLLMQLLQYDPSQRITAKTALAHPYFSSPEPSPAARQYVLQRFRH
Chain of CDK3/CycE1 (P24864 whole entry partner, species assumed): as the sequence (P24864 whole entry partner, species assumed) above
Chain of CDK5/p25NCK (Q00535 whole entry, species assumed): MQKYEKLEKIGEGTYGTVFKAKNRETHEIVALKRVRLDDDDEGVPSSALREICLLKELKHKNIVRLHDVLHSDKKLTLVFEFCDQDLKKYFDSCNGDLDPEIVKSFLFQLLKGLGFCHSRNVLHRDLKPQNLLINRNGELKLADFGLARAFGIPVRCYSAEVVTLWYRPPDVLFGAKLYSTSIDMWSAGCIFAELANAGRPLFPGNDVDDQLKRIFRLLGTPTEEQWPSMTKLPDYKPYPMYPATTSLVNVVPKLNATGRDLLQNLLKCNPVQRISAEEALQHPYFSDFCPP
Chain of CDK5/p25NCK (Q15078 99-307 partner limits assumed, species assumed): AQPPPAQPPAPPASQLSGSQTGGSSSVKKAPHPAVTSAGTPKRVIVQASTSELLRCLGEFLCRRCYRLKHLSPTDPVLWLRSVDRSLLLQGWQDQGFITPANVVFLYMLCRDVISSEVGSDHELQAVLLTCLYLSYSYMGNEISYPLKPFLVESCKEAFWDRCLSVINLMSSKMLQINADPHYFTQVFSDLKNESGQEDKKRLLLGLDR
T1 sequence (P50750 whole entry): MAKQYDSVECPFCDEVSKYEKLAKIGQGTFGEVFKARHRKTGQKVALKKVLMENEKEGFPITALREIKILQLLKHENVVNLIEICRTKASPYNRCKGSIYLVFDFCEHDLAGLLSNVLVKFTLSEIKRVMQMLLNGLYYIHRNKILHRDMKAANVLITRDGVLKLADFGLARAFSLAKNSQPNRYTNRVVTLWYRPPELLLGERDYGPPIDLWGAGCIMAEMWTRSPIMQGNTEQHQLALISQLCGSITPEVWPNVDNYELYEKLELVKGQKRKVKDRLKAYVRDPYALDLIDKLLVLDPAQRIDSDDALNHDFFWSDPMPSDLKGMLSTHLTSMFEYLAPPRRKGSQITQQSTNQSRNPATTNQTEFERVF
T1 sequence (O60563 whole entry partner): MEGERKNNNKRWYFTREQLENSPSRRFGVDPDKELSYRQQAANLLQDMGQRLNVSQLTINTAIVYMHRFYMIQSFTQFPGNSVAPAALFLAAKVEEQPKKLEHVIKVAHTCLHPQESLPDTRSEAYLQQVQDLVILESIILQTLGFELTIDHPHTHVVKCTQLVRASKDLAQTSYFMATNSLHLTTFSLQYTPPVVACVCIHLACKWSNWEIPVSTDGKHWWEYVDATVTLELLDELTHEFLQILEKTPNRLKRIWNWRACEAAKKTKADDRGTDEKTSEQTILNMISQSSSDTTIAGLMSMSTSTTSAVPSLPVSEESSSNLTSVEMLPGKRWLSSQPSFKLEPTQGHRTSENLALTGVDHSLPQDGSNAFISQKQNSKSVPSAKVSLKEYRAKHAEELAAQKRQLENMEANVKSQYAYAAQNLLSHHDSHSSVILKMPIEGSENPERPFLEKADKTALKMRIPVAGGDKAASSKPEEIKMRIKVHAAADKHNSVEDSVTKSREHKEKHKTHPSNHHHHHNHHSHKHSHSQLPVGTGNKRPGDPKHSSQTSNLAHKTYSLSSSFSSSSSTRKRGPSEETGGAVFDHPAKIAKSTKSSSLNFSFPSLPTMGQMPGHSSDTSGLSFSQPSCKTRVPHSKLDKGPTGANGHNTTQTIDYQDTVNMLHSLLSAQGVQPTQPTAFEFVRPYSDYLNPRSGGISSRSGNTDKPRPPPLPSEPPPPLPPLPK

Compound | IC50 (CDK3/CycE1) | IC50 (CDK1/CycE1) | IC50 (CDK5/p25NCK) | IC50 (CDK9/CycT1 [1]) | IC50 (CDK2/CycA2) | IC50 [2] | IC50 (CDK9/CycT1 [3])
CC(C)Nc1nc(C#N)cc2cnc(N[C@H]3CC[C@H](N)C3)cc12 [Compound 28, 7-(((1S,3S)-3-aminocyclopentyl)amino)-1-(isopropylamino)-2,6-naphthyridine-3-carbonitrile] | 97 nM | 220 nM | 96 nM | 3 nM | 50 nM | 25 nM | 
CC(C)Nc1nc(C(F)F)cc2cnc(N[C@H]3CC[C@H](N)C3)cc12 [Compound 52, N^7-((1S,3S)-3-aminocyclopentyl)-3-(difluoromethyl)-N^1-isopropyl-2,6-naphthyridine-1,7-diamine] | 23 nM |  | 16 nM | 1 nM | 12 nM | 9 nM | 
CC(C)Nc1nc(C#N)cc2cnc(N[C@H]3CCCNC3)nc12 [Compound 55, (S)-8-(isopropylamino)-2-(piperidin-3-ylamino)pyrido[3,4-d]pyrimidine-6-carbonitrile] | 24 nM | 43 nM | 56 nM | 1 nM | 60 nM | 26.1 nM | 
CC(C)Nc1nc(C#N)cc2cnc(N[C@H]3CC[C@H](N)C3)nc12 [Compound 45, 2-(((1S,3S)-3-aminocyclopentyl)amino)-8-(isopropylamino)pyrido[3,4-d]pyrimidine-6-carbonitrile] | 85 nM | 114 nM | 153 nM | 2 nM | 47 nM | 22 nM | 
CC(C)Nc1nc(C#N)cc2cnc(N[C@H]3CC[C@H](O)C3)cc12 [Compound 33, 7-(((1S,3S)-3-hydroxycyclopentyl)amino)-1-(isopropylamino)-2,6-naphthyridine-3-carbonitrile] | 9 nM |  | 3 nM | 1 nM | 3 nM | 8 nM | 
CC(C)Nc1nc(C#N)cc2cnc(N[C@@H]3CC[C@@H](N)C3)cc12 [Compound 30, 7-(((1R,3R)-3-aminocyclopentyl)amino)-1-(isopropylamino)-2,6-naphthyridine-3-carbonitrile] | 95 nM |  | 31 nM | 2 nM | 15 nM | 14 nM | 
CC(C)Nc1nc([C@@H](C)O)cc2cnc(NCC3CCCN(S(C)(=O)=O)C3)nc12 (stereo partly drawn) [Compound 70, (1R)-1-(8-(isopropylamino)-2-(((1-(methylsulfonyl)piperidin-3-yl)methyl)amino)pyrido[3,4-d]pyrimidin-6-yl)ethan-1-ol] |  |  |  |  |  |  | 61 nM
CC(=O)N1CCC(CNc2ncc3cc([C@@H](C)O)nc(NC(C)C)c3n2)CC1 [Compound 69, (R)-1-(4-(((6-(1-hydroxyethyl)-8-(isopropylamino)pyrido[3,4-d]pyrimidin-2-yl)amino)methyl)piperidin-1-yl)ethan-1-one] |  |  |  |  |  |  | 81 nM
CC(C)Nc1nc([C@@H](C)O)cc2cnc(N[C@H]3CC[C@H](NC(=O)CN(C)C)CC3)nc12 [Compound 63, 2-(dimethylamino)-N-((1R,4r)-4-((6-((R)-1-hydroxyethyl)-8-(isopropylamino)pyrido[3,4-d]pyrimidin-2-yl)amino)cyclohexyl)acetamide] |  |  |  |  |  |  | 14 nM
C[C@@H](O)c1cc2cnc(N[C@H]3CC[C@H](NC(=O)CN(C)C)CC3)nc2c(NCC(C)(C)C)n1 [Compound 64, 2-(dimethylamino)-N-((1R,4r)-4-((6-((R)-1-hydroxyethyl)-8-(neopentylamino)pyrido[3,4-d]pyrimidin-2-yl)amino)cyclohexyl)acetamide] |  |  |  |  |  |  | 26 nM

The next lines start with the values.

IC50 (CDK3/CycE1) | IC50 (CDK1/CycE1) | IC50 (CDK5/p25NCK) | IC50 (CDK9/CycT1 [1]) | IC50 (CDK2/CycA2) | IC50 [2] | IC50 (CDK9/CycT1 [3]) | Compound
 |  |  |  |  |  | 47 nM | CC(C)Nc1nc([C@@H](C)O)cc2cnc(NCC3CCNCC3)nc12 [Compound 84, (R)-1-(8-(isopropylamino)-2-((piperidin-4-ylmethyl)amino)pyrido[3,4-d]pyrimidin-6-yl)ethan-1-ol]
 |  |  |  |  |  | 44 nM | CC(=O)c1cc2cnc(N[C@H]3CC[C@H](O)CC3)nc2c(NC(C)C)n1 [Compound 88, 1-(2-(((1r,4r)-4-hydroxycyclohexyl)amino)-8-(isopropylamino)pyrido[3,4-d]pyrimidin-6-yl)ethan-1-one]
 |  |  |  |  |  | 4 nM | CC(C)Nc1nc(C#N)cc2cnc(N[C@H]3CC[C@H](O)CC3)nc12 [Compound 94, 2-(((1r,4r)-4-hydroxycyclohexyl)amino)-8-(isopropylamino)pyrido[3,4-d]pyrimidine-6-carbonitrile]
 |  |  |  |  |  | 97 nM | CC(=O)N[C@H]1CC[C@H](CNc2ncc3cc([C@@H](C)O)nc(NC(C)C)c3n2)CC1 [Compound 72, N-((1R,4r)-4-(((6-((R)-1-hydroxyethyl)-8-(isopropylamino)pyrido[3,4-d]pyrimidin-2-yl)amino)methyl)cyclohexyl)acetamide]
 |  |  |  |  |  | 23 nM | CNC(=O)[C@H]1CC[C@@H](Nc2ncc3cc([C@@H](C)O)nc(NC(C)C)c3n2)C1 [Compound 79, (1S,3R)-3-((6-((R)-1-hydroxyethyl)-8-(isopropylamino)pyrido[3,4-d]pyrimidin-2-yl)amino)-N-methylcyclopentane-1-carboxamide]
 |  |  |  |  |  | 10 nM | C[C@@H](O)c1nc(NC(C)(C)C)c2nc(N[C@H]3CC[C@H](O)CC3)ncc2c1Cl [Compound 102, (1R,4r)-4-((8-(tert-butylamino)-5-chloro-6-((R)-1-hydroxyethyl)pyrido[3,4-d]pyrimidin-2-yl)amino)cyclohexan-1-ol]
